Laboratory results as given in PubChem BioAssay AID2060499 (Molecular Pharmacology Branch, DTP, NCI, 2025).

Test system: 777334-354-R2-J4-PDC tumor spheroids with HUVEC/MSC, viability
Assay: Anticancer human tumor 777334-354-R2-J4-PDC patient-derived pancreatic adenocarcinoma cell line growth inhibition [GQUAD]
Settings: for IC50: curve of first compound; for viability, T/C: stronger effect = lower value
Procedure, shortened: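 Multi-cell-type spheroids of tumor cells with HUVEC and mesenchymal stem cells, treated with drug combinations. Concentrations descend in half-log steps from near clinical Cmax, or from 10 microM where Cmax is unknown; viability read-out.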

[1] = second compound 0.0316 µM, first compound 0.0316 µM
[2] = second compound 0.0316 µM, first compound 0.1 µM
[3] = second compound 0.0316 µM, first compound 0.316 µM
[4] = second compound 0.0316 µM, first compound 1 µM
[5] = second compound 0.0316 µM, first compound 3.16 µM
[6] = second compound 0.0316 µM, first compound 10 µM
[7] = second compound 0.1 µM, first compound 0.0316 µM
[8] = second compound 0.1 µM, first compound 0.1 µM
[9] = second compound 0.1 µM, first compound 0.316 µM
[10] = second compound 0.1 µM, first compound 1 µM
[11] = second compound 0.1 µM, first compound 3.16 µM
[12] = second compound 0.1 µM, first compound 10 µM
[13] = second compound 0.316 µM, first compound 0.0316 µM
[14] = second compound 0.316 µM, first compound 0.1 µM
[15] = second compound 0.316 µM, first compound 0.316 µM
[16] = second compound 0.316 µM, first compound 1 µM
[17] = second compound 0.316 µM, first compound 3.16 µM
[18] = second compound 0.316 µM, first compound 10 µM
[19] = second compound 1 µM, first compound 0.0316 µM
[20] = second compound 1 µM, first compound 0.1 µM
[21] = second compound 1 µM, first compound 0.316 µM
[22] = second compound 1 µM, first compound 1 µM
[23] = second compound 1 µM, first compound 3.16 µM
[24] = second compound 1 µM, first compound 10 µM
[25] = second compound 3.16 µM, first compound 0.0316 µM
[26] = second compound 3.16 µM, first compound 0.1 µM
[27] = second compound 3.16 µM, first compound 0.316 µM
[28] = second compound 3.16 µM, first compound 1 µM
[29] = second compound 3.16 µM, first compound 3.16 µM
[30] = second compound 3.16 µM, first compound 10 µM
[31] = second compound 10 µM, first compound 0.0316 µM
[32] = second compound 10 µM, first compound 0.1 µM
[33] = second compound 10 µM, first compound 0.316 µM
[34] = second compound 10 µM, first compound 1 µM
[35] = second compound 10 µM, first compound 3.16 µM
[36] = second compound 10 µM, first compound 10 µM
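Further: spheroids exposed to compounds for 7 days before readout.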

## CC1COCCN1c1cc(-c2ccnn2C)c2ccnc(-c3ccn[nH]3)c2n1 (centres undefined) + Cc1[nH]c2ccc(F)cc2c1-c1nc2c3cccnc3c3ncccc3c2[nH]1
Second compound 0.0316 µM
  IC50: 894 nM
Second compound 0.1 µM
  IC50: 834 nM
Second compound 0.316 µM
  IC50: 483 nM
Second compound 1 µM
  IC50: 479 nM
Second compound 3.16 µM
  IC50: < 31.6 nM
Second compound 10 µM
  IC50: < 31.6 nM
[1]
  viability, T/C: 91.3%
[2]
  viability, T/C: 74.2%
[3]
  viability, T/C: 62.4%
[4]
  viability, T/C: 44.4%
[5]
  viability, T/C: 44%
[6]
  viability, T/C: 31.1%
[7]
  viability, T/C: 93.7%
[8]
  viability, T/C: 67.1%
[9]
  viability, T/C: 63.5%
[10]
  viability, T/C: 46.4%
[11]
  viability, T/C: 41.5%
[12]
  viability, T/C: 29.4%
[13]
  viability, T/C: 90.9%
[14]
  viability, T/C: 79.6%
[15]
  viability, T/C: 48.7%
[16]
  viability, T/C: 46.6%
[17]
  viability, T/C: 39.5%
[18]
  viability, T/C: 29.7%
[19]
  viability, T/C: 68.7%
[20]
  viability, T/C: 65.2%
[21]
  viability, T/C: 53.2%
[22]
  viability, T/C: 39.9%
[23]
  viability, T/C: 35.6%
[24]
  viability, T/C: 19.1%
[25]
  viability, T/C: 26.4%
[26]
  viability, T/C: 23.9%
[27]
  viability, T/C: 18.9%
[28]
  viability, T/C: 11.1%
[29]
  viability, T/C: 8.41%
[30]
  viability, T/C: 8.24%
[31]
  viability, T/C: 33.5%
[32]
  viability, T/C: 19.5%
[33]
  viability, T/C: 14.9%
[34]
  viability, T/C: 11.7%
[35]
  viability, T/C: 12.7%
[36]
  viability, T/C: 11.6%

## CC1COCCN1c1cc(C2(S(C)(=N)=O)CC2)nc(-c2ccnc3[nH]ccc23)n1 (centres undefined) + Cc1[nH]c2ccc(F)cc2c1-c1nc2c3cccnc3c3ncccc3c2[nH]1
Second compound 0.0316 µM
  IC50: > 10000 nM
Second compound 0.1 µM
  IC50: > 10000 nM
Second compound 0.316 µM
  IC50: > 10000 nM
Second compound 1 µM
  IC50: 7070 nM
Second compound 3.16 µM
  IC50: < 31.6 nM
Second compound 10 µM
  IC50: < 31.6 nM
[1]
  viability, T/C: 109%
[2]
  viability, T/C: 98.9%
[3]
  viability, T/C: 108%
[4]
  viability, T/C: 100%
[5]
  viability, T/C: 87.7%
[6]
  viability, T/C: 62.2%
[7]
  viability, T/C: 113%
[8]
  viability, T/C: 92.7%
[9]
  viability, T/C: 118%
[10]
  viability, T/C: 85.8%
[11]
  viability, T/C: 94.5%
[12]
  viability, T/C: 74.8%
[13]
  viability, T/C: 94.8%
[14]
  viability, T/C: 97.7%
[15]
  viability, T/C: 88.3%
[16]
  viability, T/C: 96.2%
[17]
  viability, T/C: 89.9%
[18]
  viability, T/C: 56%
[19]
  viability, T/C: 88.7%
[20]
  viability, T/C: 93.8%
[21]
  viability, T/C: 87.1%
[22]
  viability, T/C: 75.5%
[23]
  viability, T/C: 67.9%
[24]
  viability, T/C: 42.7%
[25]
  viability, T/C: 41.8%
[26]
  viability, T/C: 27.1%
[27]
  viability, T/C: 35%
[28]
  viability, T/C: 22.8%
[29]
  viability, T/C: 25.8%
[30]
  viability, T/C: 12%
[31]
  viability, T/C: 36%
[32]
  viability, T/C: 29.2%
[33]
  viability, T/C: 29.6%
[34]
  viability, T/C: 18.9%
[35]
  viability, T/C: 20.7%
[36]
  viability, T/C: 11.1%
